Measured values published in ChEMBL document CHEMBL5154879, “Induction of Genes Implicated in Stress Response and Autophagy by a Novel Quinolin-8-yl-nicotinamide QN523 in Pancreatic Cancer” (J Med Chem, 2022).
Active and inactive are the calls of the source. The calls are words filed in the database; no cut-off is given here.

What was measured:
[1] = Upregulation of UPP1 gene expression in human MIA PaCa-2 cells assessed as fold change in UPP1 expression at 1 uM incubated for 24 hrs by Bru-seq analysis relative to control; format: functional
MIA PaCa-2 [2] = experiment: Induction of cell cycle arrest in human MIA PaCa-2 cells assessed as accumulation of cells at S phase at 0.1 uM incubated for 48 hrs by RNase/propidium iodide staining based flow cytometry analysis (Rvb =26.9 %); format: functional
[3] = Upregulation of TXNIP gene expression in human MIA PaCa-2 cells assessed as fold change in TXNIP expression at 1 uM incubated for 24 hrs by Bru-seq analysis relative to control; format: functional
[4] = Upregulation of SERPINB8 gene expression in human MIA PaCa-2 cells assessed as fold change in SERPINB8 expression at 1 uM incubated for 24 hrs by Bru-seq analysis relative to control; format: functional
MIA PaCa-2 [5] = experiment: Upregulation of NFkappaB expression in human MIA PaCa-2 cells by gene set enrichment analysis; format: functional, cell-based
OVCAR-8 = experiment: Antiproliferative activity against human OVCAR-8 cells assessed as inhibition of cell growth incubated for 72 hrs by MTT assay; format: functional, cell-based; conditions: OVCAR-8, 72 h
[6] = Downregulation of FASN gene expression in human MIA PaCa-2 cells assessed as fold change in FASN expression at 1 uM incubated for 24 hrs by Bru-seq analysis relative to control; format: functional
[7] = Downregulation of TRAF7 gene expression in human MIA PaCa-2 cells assessed as fold change in TRAF7 expression at 1 uM incubated for 24 hrs by Bru-seq analysis relative to control; format: functional
[8] = Cytotoxicity against human HPDE cells assessed as inhibition of cell growth incubated for 72 hrs by MTT assay; format: toxicity, cell-based
MIA PaCa-2 [9] = experiment: Induction of apoptosis in human MIA PaCa-2 cells assessed as late apoptotic cells at 0.1 uM incubated for 24 hrs by Annexin V-FITC/PI staining based flow cytometry analysis (reference value: 2.04%); format: functional
[10] = Cytotoxicity against human HFF-1 cells assessed as inhibition of cell growth incubated for 72 hrs by MTT assay; format: toxicity, cell-based
MIA PaCa-2 [11] = experiment: Cytotoxicity against human MIA PaCa-2 cells assessed as inhibition of cell growth incubated for 72 hrs by MTT assay; format: functional, cell-based; conditions: MIA PaCa-2, 72 h
MIA PaCa-2 [12] = experiment: Induction of ER stress pathway in human MIA PaCa-2 cells by ingenuity pathway analysis; format: functional, cell-based
MIA PaCa-2 [13] = experiment: Upregulation of GDF15 gene expression in human MIA PaCa-2 cells incubated for 72 hrs by Western blot analysis; format: functional, cell-based; conditions: dose <= 600.0 µM, DDE = dose-dependent effect
MIA PaCa-2 [14] = experiment: Upregulation of apoptosis transcription gene expression in human MIA PaCa-2 cells; format: functional, cell-based
SNU-449 = experiment: Antiproliferative activity against human SNU-449 cells assessed as inhibition of cell growth incubated for 72 hrs by MTT assay; format: functional, cell-based; conditions: SNU-449, 72 h
MIA PaCa-2 [15] = experiment: Upregulation of HSPA5 gene expression in human MIA PaCa-2 cells incubated for 72 hrs by Western blot analysis; format: functional, cell-based; conditions: DDE = dose-dependent effect
MIA PaCa-2 [16] = experiment: Induction of apoptosis in human MIA PaCa-2 cells assessed as early apoptotic cells at 0.1 uM incubated for 48 hrs by Annexin V-FITC/PI staining based flow cytometry analysis (reference value: 1.8%); format: functional
[17] = Downregulation of SMAD6 gene expression in human MIA PaCa-2 cells assessed as fold change in SMAD6 expression at 1 uM incubated for 24 hrs by Bru-seq analysis relative to control; format: functional
[18] = Upregulation of SAT1 gene expression in human MIA PaCa-2 cells assessed as fold change in SAT1 expression at 1 uM incubated for 24 hrs by Bru-seq analysis relative to control; format: functional
[19] = Upregulation of HSPA5 gene expression in human MIA PaCa-2 cells assessed as fold change in HSPA5 expression at 1 uM incubated for 24 hrs by Bru-seq analysis relative to control; format: functional
MIA PaCa-2 [20] = experiment: Induction of cell cycle arrest in human MIA PaCa-2 cells assessed as accumulation of cells in G0/G1 phase at 0.1 uM incubated for 24 hrs by RNase/propidium iodide staining based flow cytometry analysis (reference value: 64.3%); format: functional
MIA PaCa-2 [21] = experiment: Additive autophagy activity in human MIA PaCa-2 cells assessed as inhibition of colony formation at 0.001 to 0.1 uM incubated for 7 days in presence of autophagy inhibitor chloroquine by crystal violet staining based assay; format: functional, cell-based; conditions: dose 0.001-0.1 µM, time 7.0 day
MIA PaCa-2 [22] = experiment: Upregulation of UPR gene expression in human MIA PaCa-2 cells by gene set enrichment analysis; format: functional, cell-based
MIA PaCa-2 [23] = experiment: Induction of cell cycle arrest in human MIA PaCa-2 cells assessed as accumulation of cells in G0/G1 phase at 0.1 uM incubated for 48 hrs by RNase/propidium iodide staining based flow cytometry analysis (reference value: 70.4%); format: functional
MIA PaCa-2 [24] = experiment: Induction of UPR pathway in human MIA PaCa-2 cells by ingenuity pathway analysis; format: functional, cell-based
PANC-1 = experiment: Inhibition of colony formation in human PANC-1 cells at 1 uM incubated for 10 to 14 days by crystal violet staining based assay; format: functional, cell-based; conditions: time 10-14 day
MIA PaCa-2 [25] = experiment: Upregulation of P53 pathway in human MIA PaCa-2 cells by gene set enrichment analysis; format: functional, cell-based
MIA PaCa-2 [26] = experiment: Induction of cell cycle arrest in human MIA PaCa-2 cells assessed as accumulation of cells in G0/G1 phase at 0.5 uM incubated for 24 hrs by RNase/propidium iodide staining based flow cytometry analysis (reference value: 64.3%); format: functional
[27] = Downregulation of RGS3 gene expression in human MIA PaCa-2 cells assessed as fold change in RGS3 expression at 1 uM incubated for 24 hrs by Bru-seq analysis relative to control; format: functional
MIA PaCa-2 [28] = experiment: Induction of apoptosis in human MIA PaCa-2 cells assessed as live cells at 0.1 uM incubated for 48 hrs by Annexin V-FITC/PI staining based flow cytometry analysis (reference value: 96.3%); format: functional
[29] = Downregulation of ESPL1 gene expression in human MIA PaCa-2 cells assessed as fold change in ESPL1 expression at 1 uM incubated for 24 hrs by Bru-seq analysis relative to control; format: functional
MIA PaCa-2 [30] = experiment: Induction of circadian rhythm signaling pathway in human MIA PaCa-2 cells by ingenuity pathway analysis; format: functional, cell-based
[31] = Upregulation of SESN2 gene expression in human MIA PaCa-2 cells assessed as fold change in SESN2 expression at 1 uM incubated for 24 hrs by Bru-seq analysis relative to control; format: functional
MIA PaCa-2 [32] = experiment: Induction of apoptosis in human MIA PaCa-2 cells assessed as live cells at 0.5 uM incubated for 24 hrs by Annexin V-FITC/PI staining based flow cytometry analysis (reference value: 90.2%); format: functional
MIA PaCa-2 [33] = experiment: Synergistic autophagy activity in human MIA PaCa-2 cells assessed as inhibition of colony formation at 0.001 to 0.1 uM incubated for 7 days in presence of autophagy inhibitor chloroquine by crystal violet staining based assay; format: functional, cell-based; conditions: dose 0.001-0.1 µM, time 7.0 day

SMILES: O=C(Nc1cccc2cccnc12)c1cnccn1
- fold change (FC) [1]: 18.2
- Activity (MIA PaCa-2 [2]): 29.4%
- fold change (FC) [3]: 6
- fold change (FC) [4]: 5.3
- Activity (MIA PaCa-2 [5]): Active
- IC50 (OVCAR-8): 300 nM
- fold change (FC) [6]: 0.41
- fold change (FC) [7]: 0.39
- IC50 at 72 h [8]: 550 nM
- Activity (MIA PaCa-2 [9]): 2.3%
- IC50 at 72 h [10]: > 30000 nM
- IC50 (MIA PaCa-2 [11]): 110 nM
- Activity (MIA PaCa-2 [12]): Active
- Activity (MIA PaCa-2 [13]): Dde
- Activity (MIA PaCa-2 [14]): Active
- IC50 (SNU-449): 400 nM
- Activity (MIA PaCa-2 [15]): Dde
- Activity (MIA PaCa-2 [16]): 5.5%
- fold change (FC) [17]: 0.44
- fold change (FC) [18]: 7
- fold change (FC) [19]: 8.8
- Activity (MIA PaCa-2 [20]): 52%
- Activity (MIA PaCa-2 [21]): Active
- Activity (MIA PaCa-2 [22]): Active
- Activity (MIA PaCa-2 [23]): 62.4%
- Activity (MIA PaCa-2 [24]): Active
- inhibition (PANC-1): Active
- Activity (MIA PaCa-2 [25]): Active
- Activity (MIA PaCa-2 [26]): 44.5%
- fold change (FC) [27]: 0.46
- Activity (MIA PaCa-2 [28]): 92%
- fold change (FC) [29]: 0.4
- Activity (MIA PaCa-2 [30]): Active
- fold change (FC) [31]: 5.4
- Activity (MIA PaCa-2 [32]): 86.2%
- Activity (MIA PaCa-2 [33]): Active
